Test results: US9162992B2, “Compounds and compositions for treatment of breathing control disorders or diseases” (GALLEON PHARMACEUTICALS, INC., priority 2010, dated 2015)

Columns and labels:
[1] = Stability across narrow pH 2-3.6 (1 mg/mL; 10 mM citric acid and glycine); assay type: physicochemical; design: Assay: unit not given here; settings: for Impurities: in %
Description: Buffer solutions containing ca. 10 mM each of citric acid and glycine in the pH range 2-3.6 were prepared by titrating 250 mL of a single stock containing both buffer agents with 1N NaOH/1N HCl and removing 50 mL aliquots at predetermined pH values. (XXXVI) solutions at 1 mg/mL were prepared in the buffers by dissolving ˜25 mg of (XXXVI) in ca. 23 mL of a given buffer, adjusting the pH to the target and making up the volume to 25.0 mL in a volumetric flask. Each of the buffered (XXXV) solutions was filtered through a 0.2 μm polyether sulfone syringe filter into a volumetric flask previously rinsed with 70% ethanol and dried in a laminar flow hood. Following filtration, each buffered (XXXV) solution was split into 9 aliquots in 5 mL serum vials previously rinsed with 70% ethanol and dried in a laminar flow hood. Filtration and preparation of aliquots were performed in a laminar flow hood. Of the nine aliquots, three aliquots were stored at each 40° C. and 60° C., two aliquots were stored at 25° C. and one aliquot was submitted for T0 testing. Samples were evaluated for pH, assay and related substances at T0 and, following 1 week, 2 weeks and 4 weeks of storage at 40° C. and 60° C. Samples stored at 25° C. served as controls to be analyzed if necessary

[2] = system: spontaneously breathing rats; assay: Dose-dependent effect on minute ventilation (MV) in naive rats; assay type: in vivo, rat
Description: All surgical procedures were performed under anesthesia induced by 2% isoflurane in compressed medical grade air. With rats in supine position, the right femoral vein was catheterized using polyethylene tubing (PE-50). This catheter was used for fluid and drug administration. Simultaneously, the right femoral artery was also catheterized for monitoring blood pressure. In order to measure the respiratory parameters in spontaneously breathing rats, trachea was intubated using 13 gauge tracheal tube (2.5 mm ID, Instech Solomon, Pa.).
After establishing a stable base-line at 1.5% isoflurane, cumulative dose-dependent (0.01, 0.03, 0.1, 0.3, 1, 3, 10 mg/kg) ventilatory responses to compounds (XXXVI) and (L), labeled as cmpd (A) and cmpd (B) respectively, were generated from spontaneously breathing rats. Maximum peak minute ventilatory (MV) values at each dose of corresponding drug were calculated and used for generating ED50 values.

## CCCNc1nc(NCCC)nc(N(C)OC)n1 [XXXV, N-(4,6-Bis-n-propylamino-[1,3,5]triazin-2-yl)-N,O-dimethyl-hydroxylamine]
[1]; 40° C. and 60° C. storage, pH 2-3.6
  pH dependence of impurity levels: impurity levels decreased significantly with increasing pH
[1]; pH range 2-3.6
  impurity levels at pH 2 vs. impurity levels at pH 3.6: ≥ 10 fold
[1]; target pH 2.0, 40° C. 1 wk
  Assay: 0.959
  pH: 2.00
  Impurities: 0.99
[1]; target pH 2.0, 40° C. 2 wk
  Assay: 0.955
  pH: 1.98
  Impurities: 1.55
[1]; target pH 2.0, 40° C. 4 wk
  Assay: 0.956
  pH: 1.98
  Impurities: 2.84
[1]; target pH 2.0, 60° C. 1 wk
  Assay: 0.913
  pH: 2.00
  Impurities: 3.87
[1]; target pH 2.0, 60° C. 2 wk
  Assay: 0.851
  pH: 1.97
  Impurities: 7.56
[1]; target pH 2.0, 60° C. 4 wk
  Assay: 0.768
  pH: 1.89
  Impurities: 13.99
[1]; target pH 2.0, initial
  Assay: 0.981
  pH: 2.00
  Impurities: 0.14
[1]; target pH 2.3, 40° C. 1 wk
  Assay: 0.984
  pH: 2.36
  Impurities: 0.47
[1]; target pH 2.3, 40° C. 2 wk
  Assay: 0.993
  pH: 2.32
  Impurities: 0.63
[1]; target pH 2.3, 40° C. 4 wk
  Assay: 0.995
  pH: 2.33
  Impurities: 1.70
[1]; target pH 2.3, 60° C. 1 wk
  Assay: 0.961
  pH: 2.36
  Impurities: 1.81
[1]; target pH 2.3, 60° C. 2 wk
  Assay: 0.932
  pH: 2.34
  Impurities: 3.53
[1]; target pH 2.3, 60° C. 4 wk
  Assay: 0.916
  pH: 2.28
  Impurities: 6.30
[1]; target pH 2.3, initial
  Assay: 0.987
  pH: 2.33
  Impurities: 0.09
[1]; target pH 2.7, 40° C. 1 wk
  Assay: 0.981
  pH: 2.73
  Impurities: 0.22
[1]; target pH 2.7, 40° C. 2 wk
  Assay: 0.985
  pH: 2.72
  Impurities: 0.37
[1]; target pH 2.7, 40° C. 4 wk
  Assay: 1.019
  pH: 2.73
  Impurities: 0.61
[1]; target pH 2.7, 60° C. 1 wk
  Assay: 0.978
  pH: 2.75
  Impurities: 0.97
[1]; target pH 2.7, 60° C. 2 wk
  Assay: 1.144
  pH: 2.74
  Impurities: 1.76
[1]; target pH 2.7, 60° C. 4 wk
  Assay: 0.987
  pH: 2.67
  Impurities: 3.09
[1]; target pH 2.7, initial
  Assay: 0.987
  pH: 2.72
[1]; target pH 3.0, 40° C. 1 wk
  Assay: 1.01
  pH: 3.04
  Impurities: 0.21
[1]; target pH 3.0, 40° C. 2 wk
  Assay: 0.987
  pH: 3.05
  Impurities: 0.34
[1]; target pH 3.0, 40° C. 4 wk
  Assay: 1.027
  pH: 3.04
  Impurities: 0.58
[1]; target pH 3.0, 60° C. 1 wk
  Assay: 0.991
  pH: 3.05
  Impurities: 0.61
[1]; target pH 3.0, 60° C. 2 wk
  Assay: 0.975
  Impurities: 1.27
[1]; target pH 3.0, 60° C. 4 wk
  Assay: 0.987
  Impurities: 1.82
[1]; target pH 3.0, initial
  Assay: 1.005
  pH: 3.02
[1]; target pH 3.3, 40° C. 1 wk
  Assay: 1.02
  pH: 3.35
[1]; target pH 3.3, 40° C. 2 wk
  Assay: 1.01
  pH: 3.35
[1]; target pH 3.3, 40° C. 4 wk
  Assay: 1.047
  pH: 3.34
  Impurities: 0.25
[1]; target pH 3.3, 60° C. 1 wk
  Assay: 0.997
  pH: 3.36
  Impurities: 0.41
[1]; target pH 3.3, 60° C. 2 wk
  Assay: 0.995
  pH: 3.37
  Impurities: 0.69
[1]; target pH 3.3, 60° C. 4 wk
  Assay: 1.027
  pH: 3.34
  Impurities: 1.26
[1]; target pH 3.3, initial
  Assay: 1.019
  pH: 3.31
[1]; target pH 3.6, 40° C. 1 wk
  Assay: 0.991
  pH: 3.64
[1]; target pH 3.6, 40° C. 2 wk
  Assay: 0.985
  pH: 3.70
[1]; target pH 3.6, 40° C. 4 wk
  Assay: 0.991
  pH: 3.64
  Impurities: 0.17
[1]; target pH 3.6, 60° C. 1 wk
  Assay: 0.979
  pH: 3.65
  Impurities: 0.36
[1]; target pH 3.6, 60° C. 2 wk
  pH: 3.70
  Impurities: 0.62
[1]; target pH 3.6, 60° C. 4 wk
  pH: 3.64
  Impurities: 0.99
[1]; target pH 3.6, initial
  Assay: 0.996
  pH: 3.62
  Impurities: 0.12

## CCCNc1nc(NCCC)nc(N(C)OC)n1.O=S(=O)(O)O [XXXVI, N-(4,6-Bis-n-propylamino-[1,3,5]triazin-2-yl)-N,O-dimethyl-hydroxylamine hydrogen sulfate]
[2]; Rattus norvegicus, iv, read-out: ED50, maximum peak minute ventilation
  ED50: 0.14 mg/kg
[2]; cumulative IV doses, 1.5% isoflurane
  minute ventilation, dose dependence: increased minute ventilation in a dose-dependent manner
